Consider 38 compounds from the supplement of paper PMC8024199.

± gives the standard deviation of the averaged measurements.

Common to all, as to assay: drug sensitivity score (DSS) (DSS score); higher = more sensitive (stronger growth inhibition); extreme values may be limits of the assay
The subject of assay [1] is Ba/F3 P210-BCR-ABL1 RUNX1-/- (mouse). The method, boiled down: (§1)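 Each value is a drug sensitivity score derived from CellTiter-Glo luminescence scaled between vehicle and positive-control wells. Mouse Ba/F3 clones, CRISPR/Cas9-edited at a target exon or edited controls, were seeded at 10,000 cells per well in RPMI with 10% FBS and treated for 72 h at 37 °C and 5% CO2. Compounds from a 528-compound library were tested at five concentrations over a 10,000-fold range, and scores were averaged over two replicates.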

Assay [2] deals with Ba/F3 P210-BCR-ABL1 RUNX1wt/wt control (mouse). In short, it runs like this: as §1
The test system of assay [3] is Ba/F3 P210-BCR-ABL1 RUNX1-/mut (mouse). In short, it runs like this: as §1

In the case of `C1=N/C2=N/c3ccc(OCCN4CCCC4)c(c3)COC/C=C/COCc3cccc(c3)C(=C1)N2` [Pacritinib], the drug sensitivity score was found to be 13.8 ± 1.6 in assay [1], 7 ± 0.14 in assay [2] and 10.8 ± 2.6 in assay [3].

Regarding `COc1cc2c(cc1OCCCN1CCCC1)N=C(N)C21CCC1` [A-366], the drug sensitivity score in assay [1] came to 6.1 ± 0.57; in assay [2] it was 0; in assay [3], 6.5 ± 3.

Take `Nc1ncnc2c1nc(Cl)n2[C@@H]1O[C@H](CO)[C@@H](O)[C@H]1O` [8-chloro-adenosine]: the drug sensitivity score in assay [1] was 15.7 ± 1.1; in assay [2] it was 7.95 ± 0.21; in assay [3], 13.8 ± 1.3.

Consider `CC1CCC(n2c3cnccc3c3cnc(Nc4ccc5c(n4)CCN(C(=O)CO)C5)nc32)CC1` (centres undefined) [AMG-925], for which the drug sensitivity score in assay [1] amounted to 4.2 ± 0.42; in assay [2], 0; in assay [3], 1.8 ± 2.1.

`C[C@@H](Oc1cc(-n2cnc3ccc(CN4CCN(C)CC4)cc32)sc1C(N)=O)c1ccccc1C(F)(F)F`: the drug sensitivity score was 22.2 ± 1.5 in assay [1], 15.8 in assay [2] and 20.6 ± 2.3 in assay [3].

`O=C(CCCCCCC(=O)Nc1ccc([C@H]2O[C@@H](CSc3nc(-c4ccccc4)c(-c4ccccc4)o3)C[C@@H](c3ccc(CO)cc3)O2)cc1)NO` [Tubacin]: the drug sensitivity score in assay [1] was 6.45 ± 1.2; in assay [2], 4.35 ± 0.78; in assay [3], 6.2 ± 0.28.

As for `CC[C@H](C)C(=O)O[C@H]1C[C@@H](C)C=C2C=C[C@H](C)[C@H](CC[C@@H]3C[C@@H](O)CC(=O)O3)[C@H]21` [Lovastatin], the drug sensitivity score in assay [1], in assay [2] and in assay [3] was 0 throughout.

Take `CCCCOc1nc(N)c2c(n1)N(Cc1cccc(CN3CCCC3)c1)CC(=O)N2` [Vesatolimod]: the values for the drug sensitivity score in assay [1], in assay [2] and in assay [3] were 2.65 ± 3.8, 1.65 ± 0.35 and 3.25 ± 3.8, respectively.

On to `CC1(C)C(C(=O)Nc2ccc(S(=O)(=O)c3ccc(NC(=O)C4C(C)(C)C4(C)C)cc3)cc2)C1(C)C` [BRD7116], for which the drug sensitivity score was found to be 3.75 ± 2.6 in assay [1], 0 in assay [2] and 0.05 ± 0.071 in assay [3].

In the case of `NC(=O)Nc1cc(-c2cccc(F)c2)sc1C(=O)N[C@H]1CCCNC1` [AZD7762], the drug sensitivity score in assay [1] amounted to 9.8 ± 2; in assay [2] it was 7.1 ± 0.71; in assay [3] it was 7.8 ± 2.1.

As for `O=C(Nc1cccnc1)N1CCC(Cc2cccc(Oc3ccc(C(F)(F)F)cn3)c2)CC1` [PF-3845], the figures for the drug sensitivity score in assay [1], in assay [2] and in assay [3] were 2.15 ± 0.64, 2.1 ± 0.14 and 1.9 ± 2.7, respectively.

On to `COc1cc2c(cc1-c1c(C)noc1C)ncc1[nH]c(=O)n([C@H](C)c3ccccn3)c12` [I-BET151], for which the drug sensitivity score in assay [1] turned out to be 18.6 ± 0.78; in assay [2] it was 13.9; in assay [3], 18.4 ± 2.3.

Turning to `CC(=O)OC[C@H]1O[C@@H]([S-])[C@H](OC(C)=O)[C@@H](OC(C)=O)[C@@H]1OC(C)=O.CCP(CC)CC.[Au+]` [Auranofin], the drug sensitivity score in assay [1] was 8.5 ± 0.85; in assay [2], 2.8 ± 0.71; in assay [3], 6.15 ± 4.5.

Regarding `C#Cc1cccc(Nc2ncnc3cc4c(cc23)OCCOCCOCCO4)c1` [Icotinib], the drug sensitivity score in assay [1], in assay [2] and in assay [3] was 0 each time.

Regarding `CC1=C2C[C@H]3[C@@H](CC[C@@H]4C[C@H](NS(C)(=O)=O)CC[C@@]43C)[C@@H]2CC[C@@]2(C1)O[C@@H]1C[C@H](C)CN[C@H]1[C@H]2C` [Saridegib], the drug sensitivity score was 2.3 ± 0.28 in assay [1], 0 in assay [2] and 2.15 ± 3 in assay [3].

Regarding `Cc1ccc(C(=O)Nc2cccc(C(F)(F)F)c2)cc1Nc1nc(-c2cccnc2)nc2c1cnn2C` [NVP-BHG712], the results for the drug sensitivity score in assay [1], in assay [2] and in assay [3] were 7.45 ± 0.35, 5.4 ± 0.42 and 5.15 ± 0.071, respectively.

For the compound `C[C@@H]1CN(CC(=O)Nc2ccc3c(c2)Cc2cccc(-c4cc(=O)cc(N5CCOCC5)o4)c2S3)C[C@H](C)O1`, the drug sensitivity score in assay [1] is 6.15 ± 1.8; in assay [2], 3.05 ± 0.49; in assay [3], 5.3 ± 1.3.

Take `CC(C)Oc1ccc(C(=O)N[C@H](CNC(=O)CN(C)C)Cc2ccc(-c3cn4cccc([C@H](C)O)c4n3)cc2)cc1Cl`: the drug sensitivity score in assay [1] was 10.2 ± 0.57; in assay [2], 2 ± 0.14; in assay [3], 7.5 ± 2.4.

On to `O=C(Nc1cc(Oc2cc(F)c(NC(=O)C3(C(=O)Nc4ccc(F)cc4)CC3)cc2F)ccn1)C1CC1` [Altiratinib], for which the values for the drug sensitivity score in assay [1], in assay [2] and in assay [3] were 10.8, 5.45 ± 0.21 and 6.8 ± 0.85, respectively.

For the compound `C=CC(=O)N1CCC[C@@H](n2nc(-c3ccc(Oc4ccccc4)cc3)c3c(N)ncnc32)C1` [Ibrutinib], the figures for the drug sensitivity score in assay [1], in assay [2] and in assay [3] were 1.5 ± 0.71, 0.35 ± 0.49 and 0.2 ± 0.28, respectively.

`CCN(c1cc(-c2ccc(CN3CCOCC3)cc2)cc(C(=O)NCc2c(C)cc(C)[nH]c2=O)c1C)C1CCOCC1` [Tazemetostat]: the drug sensitivity score in assay [1] was 0.45 ± 0.64; in assay [2], 0; in assay [3] it was 0.25 ± 0.35.

With `CCc1cc2c(cc1N1CCC(N3CCOCC3)CC1)C(C)(C)c1[nH]c3cc(C#N)ccc3c1C2=O` [Alectinib], the drug sensitivity score in assay [1] stood at 1.05 ± 0.35; in assay [2] it was 0; in assay [3] it was 0.7 ± 0.99.

In the case of `CCn1cc(-c2ccnc3[nH]c(-c4cccc(CN(C)C)c4)cc23)c(-c2ccc(NC(=O)N(C)C)cc2)n1`, the drug sensitivity score was found to be 14.6 ± 2.2 in assay [1], 0.3 ± 0.28 in assay [2] and 9.15 ± 1.5 in assay [3].

Consider `O=C(/C=C\n1cnc(-c2cc(C(F)(F)F)cc(C(F)(F)F)c2)n1)NNc1ccccn1` [Verdinexor], for which the drug sensitivity score was 14.4 ± 0.92 in assay [1], 9.1 ± 0.42 in assay [2] and 13.3 ± 0.57 in assay [3].

On to `COC(=O)c1ccc2c(c1)NC(=O)/C2=C(\Nc1ccc(N(C)C(=O)CN2CCN(C)CC2)cc1)c1ccccc1` [Nintedanib], for which the drug sensitivity score in assay [1] worked out at 17.4; in assay [2] it was 5.4 ± 0.14; in assay [3], 8.15 ± 4.6.

Regarding `O=C(CCCCCCNC(=O)c1cnc(N(c2ccccc2)c2ccccc2)nc1)NO` [Rocilinostat], the drug sensitivity score in assay [1] came out at 10.2 ± 1.5; in assay [2] it was 6.25 ± 0.071; in assay [3], 9.05 ± 2.2.

Turning to `NC(=O)c1cccc(-c2cccc(OC(=O)NC3CCCCC3)c2)c1` [URB597], the drug sensitivity score in assay [1] turned out to be 0; in assay [2] it was 0.05 ± 0.071; in assay [3] it was 0.15 ± 0.21.

Turning to `COc1ccc(C[C@H](NC(=O)[C@H](C)NC(=O)CN2CCOCC2)C(=O)N[C@@H](Cc2ccccc2)C(=O)C2(C)CO2)cc1` (stereo in doubt) [ONX-0914], the drug sensitivity score in assay [1] is 22.05 ± 0.21; in assay [2], 17.8 ± 0.28; in assay [3], 23.2 ± 2.6.

Turning to `O=C(O)c1ccc(-c2c[nH]c3ncc(-c4ccccc4)cc23)cc1C1CCCC1`, the drug sensitivity score in assay [1] amounted to 2.8 ± 0.57; in assay [2], 0.85 ± 0.35; in assay [3], 2.5 ± 0.28.

As to `CCC1=C[C@@H]2CN(C1)Cc1c([nH]c3ccccc13)[C@@](C(=O)OC)(c1cc3c(cc1OC)N(C)[C@H]1[C@@](O)(C(=O)OC)[C@H](OC(C)=O)[C@]4(CC)C=CCN5CC[C@]31[C@@H]54)C2` [Vinorelbine], the drug sensitivity score was found to be 38 ± 2.1 in assay [1], 19.1 in assay [2] and 36.1 ± 1.1 in assay [3].

In the case of `Cn1cc(-c2cnn3c(N)c(Br)c([C@@H]4CCCNC4)nc23)cn1` [MK-8776], the drug sensitivity score in assay [1] came out at 7.25 ± 0.64; in assay [2], 0; in assay [3], 5.25 ± 3.3.

With `CC(C)C[C@H](NC(=O)CNC(=O)c1cc(Cl)ccc1Cl)B(O)O` [Ixazomib], the figures for the drug sensitivity score in assay [1], in assay [2] and in assay [3] were 13.5 ± 2.4, 13.7 ± 1.4 and 8.95 ± 1.2, respectively.

For `CNC(=O)c1ccc(N2C(=S)N(c3ccc(C#N)c(C(F)(F)F)c3)C(=O)C2(C)C)cc1F` [Enzalutamide], the drug sensitivity score is 1.15 ± 1.6 in assay [1], 0.3 ± 0.14 in assay [2] and 1.05 ± 1.5 in assay [3].

As to `CC(C)NC[C@@H](C(=O)N1CCN(c2ncnc3c2[C@H](C)C[C@H]3O)CC1)c1ccc(Cl)cc1` [Ipatasertib], the drug sensitivity score in assay [1] turned out to be 4.75 ± 0.92; in assay [2], 0.3 ± 0.42; in assay [3] it was 3.4 ± 2.7.

Take `CC[C@H](C)C(=O)O[C@H]1C[C@H](O)C=C2C=C[C@H](C)[C@H](CC[C@@H](O)C[C@@H](O)CC(=O)O)[C@H]21` [Pravastatin]: the drug sensitivity score in assay [1] is 0.1 ± 0.14; in assay [2] it was 0.1 ± 0.14; in assay [3], 0.

On to `COc1cc(C)c(/C=C/C(C)=C/C=C/C(C)=C/C(=O)O)c(C)c1C` [Acitretin], for which the drug sensitivity score was 0 in assay [1], 0 in assay [2] and 1.3 ± 1.8 in assay [3].

As to `N#CCNC(=O)c1ccc(-c2ccnc(Nc3ccc(N4CCOCC4)cc3)n2)cc1` [Momelotinib], the figures for the drug sensitivity score in assay [1], in assay [2] and in assay [3] were 8.45 ± 1.1, 6.15 ± 0.64 and 5.9 ± 1.1, respectively.

Regarding `CN(C(=O)c1ccc(F)cc1C(F)(F)F)C1CCN(c2nnc(-c3ccnn3C)c3ccccc23)CC1` [Taladegib], the drug sensitivity score in assay [1] came out at 0.85 ± 1.2; in assay [2] it was 0; in assay [3], 1.8 ± 2.5.
